Patent US9376376B2, “Substitute diphenylamine compounds use thereof as antitumor agents” (SINOCHEM CORPORATION, priority 2012, dated 2016)

Tests used:
Assay type in all cases: cell-based, human
[1] = tested on: non-small cell lung cancer A549 cells; assay: In vitro cell inhibition assay, CCK-8 method, A549; details: 48 h incubation
Method: (§1) After the cell culture flasks gently shaking, culture fluid was discarded in clean bench. […] Cells were collected and transferred to centrifuge tube. For the non-adherent cells HL-60, CCRF-CEM and MOLT-4, cell flasks were picked up from incubator and then transferred to the centrifuge tubes directly. After cells were collected using centrifuge at 1000 rpm/min for 5 min, the fluid was discarded. Then cells were washed for one time by PBS, discard fluid. Then add some medium, count cells under inverted microscope using blood cell counting plate, according the counting number to making the density of adherent cell was 1×10^5 cells/mL, the non-adherent cell was 2×10^5 cells/mL (the volumes of HL-60, CCRF-CEM, MOLT-4 are smaller than non-adherent cells, these cells added to each well was much more higher). Add 50 μL aliquots to each well of 96-well plates (the density of adherent cells was 5000 cells/well, non-adherent cells was 10000 cells/well). Blank control, Negative control, blank control with compounds and positive control wells were grouped, and three replicate wells were used for each data point in the experiments. Then the cells were cultured in 5% incubator for overnight at 37° C., Then the different concentration compounds were added to each well. After incubation for 48 h, according to the manufacturer's instructions, CCK-8 reagent (10 μl) was added and incubation was continued for a further 2-4 h. The absorbance (A) of each well was read at 450 nm using a plate reader.

leukemia HL-60 cells [2] = assay: In vitro cell inhibition assay, CCK-8 method, HL-60; details: HL-60 cells, CCK-8 method
Method: as §1

leukemia HL-60 cells [3] = assay: In vitro cell inhibition assay (MTT method), HL-60; details: 48 h
Method: (§2) The human cancer cell lines used for this assay were lung cancer A549 and leukemia HL-60.
(§3) The A549 or HL-60 cells were picked up from cell incubator, after washed for twice using PBS, cells were digested by 0.25% trypsin, and then add medium to terminate the digestion. After cells were collected using centrifuge and re-suspended, count cells under inverted microscope and add medium to make a density was 5×10^4 cells/mL. After 100 μL aliquots were added to each well of 96-well microtiter plates, cells were cultured in 5% incubator for overnight at 37° C., then the different concentration compounds were added to each well. After incubation for 48 h, MTT solution was added to each well and plates were then incubated for 4 h. The MTT tetrazolium was reduced to formazan by living cells. Then the formazan crystals were dissolved though adding DMSO to each well. The absorbance was read at 570 nm with a microplate reader.

lung cancer A549 cell = assay: In vitro cell inhibition assay (MTT method), A549; details: 48 h incubation
Method: as §2, §3

| Structure (SMILES) | Proliferation inhibitory effect of the compounds on A549 cells (% of Control) ([1]; CCK-8, 0.01 μM) | Proliferation inhibitory effect of the compounds on A549 cells (% of Control) ([1]; CCK-8, 0.1 μM) | Proliferation inhibitory effect of the compounds on A549 cells (% of Control) ([1]; CCK-8, 1 μM) | Proliferation inhibitory effect of the compounds on A549 cells (% of Control) ([1]; CCK-8, 10 μM) | Proliferation inhibitory effect of the compounds on A549 cells (% of Control) ([1]; CCK-8, 100 μM) | Proliferation inhibitory effect of the compounds on HL-60 cells (% of Control) (leukemia HL-60 cells [2]; concentration 0.01 μM) | Proliferation inhibitory effect of the compounds on HL-60 cells (% of Control) (leukemia HL-60 cells [2]; concentration 0.1 μM) | Proliferation inhibitory effect of the compounds on HL-60 cells (% of Control) (leukemia HL-60 cells [2]; concentration 1 μM) | Proliferation inhibitory effect of the compounds on HL-60 cells (% of Control) (leukemia HL-60 cells [2]; concentration 10 μM) | Proliferation inhibitory effect of the compounds on HL-60 cells (% of Control) (leukemia HL-60 cells [2]; concentration 100 μM) | Proliferation inhibitory effect of the compounds on HL-60 cells (% of Control) (leukemia HL-60 cells [3]; concentration 0.01 μM) | Proliferation inhibitory effect of the compounds on HL-60 cells (% of Control) (leukemia HL-60 cells [3]; concentration 0.1 μM) | Proliferation inhibitory effect of the compounds on HL-60 cells (% of Control) (leukemia HL-60 cells [3]; concentration 1 μM) | Proliferation inhibitory effect of the compounds on HL-60 cells (% of Control) (leukemia HL-60 cells [3]; concentration 10 μM) | Proliferation inhibitory effect of the compounds on HL-60 cells (% of Control) (leukemia HL-60 cells [3]; concentration 100 μM) | Proliferation inhibitory effect of the compounds on A549 cell (% of Control) (lung cancer A549 cell; 0.01 μM) | Proliferation inhibitory effect of the compounds on A549 cell (% of Control) (lung cancer A549 cell; 0.1 μM) | Proliferation inhibitory effect of the compounds on A549 cell (% of Control) (lung cancer A549 cell; 1 μM) | Proliferation inhibitory effect of the compounds on A549 cell (% of Control) (lung cancer A549 cell; 10 μM) | Proliferation inhibitory effect of the compounds on A549 cell (% of Control) (lung cancer A549 cell; 100 μM) |
| --- | --- | --- | --- | --- | --- | --- | --- | --- | --- | --- | --- | --- | --- | --- | --- | --- | --- | --- | --- | --- |
| N#Cc1c(Cl)c(Cl)c(Nc2ccc(C(F)(F)F)cc2)c(C#N)c1Cl [Compound 6-24] | 22.06 % of Control | 24.27 % of Control | 31.44 % of Control | 60.31 % of Control | 87.36 % of Control | 0.00 % of Control | 17.55 % of Control | 48.39 % of Control | 56.72 % of Control | 95.11 % of Control |  |  |  |  |  |  |  |  |  |  |
| COC(=O)c1ccc(Nc2c(Cl)c(Cl)c(C#N)c(Cl)c2C#N)cc1 [Compound 6-25] | 15.66 % of Control | 18.59 % of Control | 17.11 % of Control | 55.87 % of Control | 81.32 % of Control | 11.52 % of Control | 42.54 % of Control | 84.06 % of Control | 92.02 % of Control | 84.30 % of Control |  |  |  |  |  |  |  |  |  |  |
| N#Cc1c(Cl)c(Cl)c(Nc2ccc(Cl)c(Cl)c2)c(C#N)c1Cl [Compound 6-43] |  |  |  |  |  | 23.65 % of Control | 31.60 % of Control | 38.45 % of Control | 73.80 % of Control | 78.53 % of Control |  |  |  |  |  |  |  |  |  |  |
| N#Cc1c(Cl)c(Cl)c(Nc2ccc(Br)cc2Cl)c(C#N)c1Cl [Compound 6-45] |  |  |  |  |  | 0.00 % of Control | 27.78 % of Control | 39.89 % of Control | 52.09 % of Control | 80.30 % of Control |  |  |  |  |  |  |  |  |  |  |
| N#Cc1c(Cl)c(Cl)c(Nc2ccc(C(F)(F)F)cc2Cl)c(C#N)c1Cl [Compound 6-47] | 42.56 % of Control | 49.86 % of Control | 53.58 % of Control | 55.57 % of Control | 99.91 % of Control | 7.02 % of Control | 34.70 % of Control | 41.47 % of Control | 83.33 % of Control | 98.51 % of Control |  |  |  |  |  |  |  |  |  |  |
| N#Cc1c(Cl)c(Cl)c(Nc2c(Cl)cc(C(F)(F)F)cc2Cl)c(C#N)c1Cl [Compound 6-95] | 39.65 % of Control | 56.27 % of Control | 78.63 % of Control | 97.88 % of Control | 98.69 % of Control | 0.00 % of Control | 43.28 % of Control | 94.76 % of Control | 94.99 % of Control | 96.40 % of Control |  |  |  |  |  |  |  |  |  |  |
| COC(=O)c1cc(Cl)c(Nc2c(Cl)c(Cl)c(C#N)c(Cl)c2C#N)c(Cl)c1 [Compound 6-100] | 43.98 % of Control | 50.53 % of Control | 52.15 % of Control | 57.45 % of Control | 89.94 % of Control | 14.24 % of Control | 26.90 % of Control | 39.47 % of Control | 49.85 % of Control | 97.42 % of Control |  |  |  |  |  |  |  |  |  |  |
| Cc1c(Cl)c([N+](=O)[O-])cc([N+](=O)[O-])c1Nc1c(Cl)cc(C(F)(F)F)cc1Cl [Compound 22-101] |  |  |  |  |  |  |  |  |  |  | 8.3 % of Control | 5.5 % of Control | 48.6 % of Control | 73.4 % of Control | 64.7 % of Control | 13.7 % of Control | 21.4 % of Control | 19.1 % of Control | 66.4 % of Control | 97.5 % of Control |
| Cc1c(Cl)c([N+](=O)[O-])cc([N+](=O)[O-])c1Nc1c(Cl)cc(Cl)cc1C#N [Compound 22-120] |  |  |  |  |  |  |  |  |  |  | 9.6 % of Control | 20.5 % of Control | 19.7 % of Control | 63.1 % of Control | 61.0 % of Control | 0.8 % of Control | 0 % of Control | 9.8 % of Control | 86.8 % of Control | 92.1 % of Control |
| Cc1cc([N+](=O)[O-])cc([N+](=O)[O-])c1Nc1c(Cl)cc(C#N)cc1Cl [Compound 30-104] |  |  |  |  |  |  |  |  |  |  | 21.8 % of Control | 31.6 % of Control | 65.3 % of Control | 88.0 % of Control | 93.3 % of Control | 2.4 % of Control | 1.1 % of Control | −0.1 % of Control | 78.4 % of Control | 91.8 % of Control |
| Cc1cc([N+](=O)[O-])cc([N+](=O)[O-])c1Nc1c(Cl)cc(Cl)cc1C#N [Compound 30-120] |  |  |  |  |  |  |  |  |  |  | 23.6 % of Control | 39.2 % of Control | 70.6 % of Control | 95.9 % of Control | 95.7 % of Control | −1.5 % of Control | −0.9 % of Control | −0.7 % of Control | 84.0 % of Control | 92.0 % of Control |
